Data: patent US10703764B2, “Benzopiperazine compositions as BET bromodomain inhibitors” (FORMA Therapeutics, Inc., priority 2013, dated 2020)

Legend:
BRD4 BD1 = target: T1, BRD4 BD1 (Homo sapiens, UniProt O60885); test: AlphaScreen binding assay, BRD4 Bromodomain 1
T1 construct: made in house
Outline: (§1)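 Compound dilution series were mixed with His-tagged BRD4 bromodomain and biotinylated tetra-acetylated H4 (1-21) peptide at pH 7.3 (BD1 and peptide at 50 nM, BD2 and peptide at 100 nM). Donor and acceptor beads were then added, and plates were equilibrated at least 1 h before reading. IC50 values were fitted with a four-parameter logistic model.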

BRD4 BD2 = target: T2, BRD4 BD2 (Homo sapiens, UniProt O60885); test: AlphaScreen binding assay, BRD4 Bromodomain 2
T2 construct: made in house
Outline: as §1

MV4-11 cells = test: Oncology cell growth assay (3-day proliferation, CellTiter-Glo); format: cell-based; conditions: Homo sapiens, MV4-11, 72 h, AML cell line MV4-11, 72 hours, compounds grouped by IC50 range, read-out: MV4-11 IC50 (inhibition of proliferation, gIC50)
Outline: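 Luminescence from CellTiter-Glo served as the growth read-out after MV4-11 cells (3000/well) were cultured with compound for 72 hours. Final concentrations spanned 10 to 0.0045 μM in 3-fold steps. gIC50 values were derived by four-parameter logistic fitting relative to DMSO and cell-free controls.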

| IC50 (BRD4 BD1) | IC50 (BRD4 BD2) | IC50 (MV4-11 cells) | Compound |
| --- | --- | --- | --- |
| 100 to 1000 nM | 50 to 500 nM | 100 to 500 nM | CC(=O)N1c2ccc(-c3cnn(CC4(C)COC4)c3)cc2N(C(=O)OC(C)C)C[C@@H]1C [Example I-605] |
| 100 to 1000 nM | < 50 nM | 100 to 500 nM | CC(=O)N1c2ccc(-c3cnn(CCC(N)=O)c3)cc2N(C(=O)OC(C)C)C[C@@H]1C [Example I-606] |
| 100 to 1000 nM | 50 to 500 nM | 100 to 500 nM | CC(=O)N1c2ccc(-c3cnn(CC#N)c3)cc2N(C(=O)OC(C)C)C[C@@H]1C [Example I-607] |
| 100 to 1000 nM | 50 to 500 nM | 100 to 500 nM | CC(=O)N1c2ccc(-c3cnn(CC4CCOCC4)c3)cc2N(C(=O)OC(C)C)C[C@@H]1C [Example I-608] |
| 100 to 1000 nM | 50 to 500 nM | > 500 nM | CC(C)OC(=O)N1C[C@H](C)N(C(=O)C2CC2)c2ccc(-c3cnn(CC4CCS(=O)(=O)CC4)c3)cc21 [Example I-609] |
| 100 to 1000 nM | 50 to 500 nM | > 500 nM | CC(C)OC(=O)N1C[C@H](C)N(C(=O)C2CC2)c2ccc(-c3cnn(CCN4CCCS4(=O)=O)c3)cc21 [Example I-611] |
| 100 to 1000 nM | 50 to 500 nM | > 500 nM | CC(C)OC(=O)N1C[C@H](C)N(C(=O)C2CC2)c2ccc(-c3cnn(CCn4ccnc4)c3)cc21 [Example I-612] |
| 100 to 1000 nM | 50 to 500 nM | 100 to 500 nM | CC(C)OC(=O)N1C[C@H](C)N(C(=O)C2CC2)c2ccc(-c3cnn(CC4(CO)COC4)c3)cc21 [Example I-615] |
| 100 to 1000 nM | 50 to 500 nM | 100 to 500 nM | CC(C)OC(=O)N1CC(C)N(C(=O)C2CC2)c2ccc(-c3cnn(Cc4c[nH]cn4)c3)cc21 (stereo not drawn) [Example I-616] |
| 100 to 1000 nM | 50 to 500 nM | 100 to 500 nM | Cc1noc(C)c1Cn1cc(-c2ccc3c(c2)N(C(=O)OC(C)C)C[C@H](C)N3C(=O)C2CC2)cn1 [Example I-617] |
| 1000 to 10000 nM | > 500 nM | 100 to 500 nM | CC(C)OC(=O)N1C[C@H](C)N(C(=O)C2CC2)c2ccc(-c3cnn(CC4CCC4)c3)cc21 [Example I-618] |
| 100 to 1000 nM | 50 to 500 nM | 100 to 500 nM | CC(C)OC(=O)N1C[C@H](C)N(C(=O)C2CC2)c2ccc(-c3cnn(CC(F)(F)F)c3)cc21 [Example I-619] |
| 100 to 1000 nM | 50 to 500 nM | 100 to 500 nM | CC(C)OC(=O)N1C[C@H](C)N(C(=O)C2CC2)c2ccc(-c3cnn(CC4(C)COC4)c3)cc21 [Example I-620] |
| 100 to 1000 nM | 50 to 500 nM | > 500 nM | CC(C)OC(=O)N1C[C@H](C)N(C(=O)C2CC2)c2ccc(-c3cnn(CCC(N)=O)c3)cc21 [Example I-621] |
| 100 to 1000 nM | 50 to 500 nM | 100 to 500 nM | CC(C)OC(=O)N1C[C@H](C)N(C(=O)C2CC2)c2ccc(-c3cnn(CC4CCOCC4)c3)cc21 [Example I-623] |
| 100 to 1000 nM | 50 to 500 nM | > 500 nM | COC(=O)N1c2ccc(-c3cnn(CC4CCS(=O)(=O)CC4)c3)cc2N(C(=O)OC(C)C)C[C@@H]1C [Example I-624] |
| 100 to 1000 nM | 50 to 500 nM | > 500 nM | COC(=O)N1c2ccc(-c3cnn(CC(=O)N(C)C4CC4)c3)cc2N(C(=O)OC(C)C)C[C@@H]1C [Example I-625] |
| 100 to 1000 nM | 50 to 500 nM | > 500 nM | COC(=O)N1c2ccc(-c3cnn(CCN4CCCS4(=O)=O)c3)cc2N(C(=O)OC(C)C)C[C@@H]1C [Example I-626] |
| 100 to 1000 nM | 50 to 500 nM | > 500 nM | COC(=O)N1c2ccc(-c3cnn(CCn4ccnc4)c3)cc2N(C(=O)OC(C)C)C[C@@H]1C [Example I-627] |
| 100 to 1000 nM | 50 to 500 nM | 100 to 500 nM | COC(=O)N1c2ccc(-c3cnn(CCN4CCCC4=O)c3)cc2N(C(=O)OC(C)C)C[C@@H]1C [Example I-628] |
| < 100 nM | 50 to 500 nM | 100 to 500 nM | COC(=O)N1c2ccc(-c3cnn(CC4(CO)COC4)c3)cc2N(C(=O)OC(C)C)C[C@@H]1C [Example I-630] |
| 100 to 1000 nM | 50 to 500 nM | > 500 nM | COC(=O)N1c2ccc(-c3cnn(Cc4c[nH]cn4)c3)cc2N(C(=O)OC(C)C)CC1C (stereo not drawn) [Example I-631] |
| 100 to 1000 nM | 50 to 500 nM | 100 to 500 nM | COC(=O)N1c2ccc(-c3cnn(Cc4cncnc4)c3)cc2N(C(=O)OC(C)C)C[C@@H]1C [Example I-632] |
| 100 to 1000 nM | 50 to 500 nM | 100 to 500 nM | COC(=O)N1c2ccc(-c3cnn(Cc4cnccn4)c3)cc2N(C(=O)OC(C)C)C[C@@H]1C [Example I-633] |
| 100 to 1000 nM | 50 to 500 nM | 100 to 500 nM | COC(=O)N1c2ccc(-c3cnn(Cc4c(C)noc4C)c3)cc2N(C(=O)OC(C)C)C[C@@H]1C [Example I-634] |

| IC50 (BRD4 BD1) | IC50 (BRD4 BD2) | IC50 (MV4-11 cells) | Compound |
| --- | --- | --- | --- |
| 100 to 1000 nM | > 500 nM | > 500 nM | COC(=O)N1c2ccc(-c3cnn(CC(F)(F)F)c3)cc2N(C(=O)OC(C)C)C[C@@H]1C [Example I-636] |
| 100 to 1000 nM | 50 to 500 nM | 100 to 500 nM | COC(=O)N1c2ccc(-c3cnn(CC4(C)COC4)c3)cc2N(C(=O)OC(C)C)C[C@@H]1C [Example I-637] |
| 100 to 1000 nM | 50 to 500 nM | > 500 nM | COC(=O)N1c2ccc(-c3cnn(CCC(N)=O)c3)cc2N(C(=O)OC(C)C)C[C@@H]1C [Example I-638] |
| 100 to 1000 nM | 50 to 500 nM | > 500 nM | COC(=O)N1c2ccc(-c3cnn(Cc4ccncc4)c3)cc2N(C(=O)OC(C)C)C[C@@H]1C [Example I-640] |
| 100 to 1000 nM | 50 to 500 nM | 100 to 500 nM | COC(=O)N1c2ccc(-c3cnn(CC4CCOCC4)c3)cc2N(C(=O)OC(C)C)C[C@@H]1C [Example I-641] |
| 100 to 1000 nM | 50 to 500 nM | 100 to 500 nM | CC(=O)N1c2ccc(-c3cnn(CC4COC4)c3)cc2N(C(=O)OC(C)C)C[C@@H]1C [Example I-642] |
| 100 to 1000 nM | 50 to 500 nM | 100 to 500 nM | CC(C)OC(=O)N1C[C@H](C)N(C(=O)C2CC2)c2ccc(-c3cnn(CC4COC4)c3)cc21 [Example I-643] |
| 100 to 1000 nM | 50 to 500 nM | > 500 nM | COC(=O)N1c2ccc(-c3cnn(CC4COC4)c3)cc2N(C(=O)OC(C)C)C[C@@H]1C [Example I-644] |
| 100 to 1000 nM | 50 to 500 nM | > 500 nM | CC(=O)N1c2ccc(-c3cnn(C(C)C)c3)cc2N(C(=O)C2CC2)C[C@@H]1C [Example I-647] |
| 100 to 1000 nM | 50 to 500 nM | > 500 nM | CC(=O)N1c2ccc(-c3cnn(CC4(F)COC4)c3)cc2N(C(=O)C2CC2)C[C@@H]1C [Example I-649] |
| 100 to 1000 nM | 50 to 500 nM | 100 to 500 nM | CC(=O)N1c2ccc(-c3cnn(CCC#N)c3)cc2N(C(=O)C2CC2)C[C@@H]1C [Example I-650] |
| 100 to 1000 nM | 50 to 500 nM | > 500 nM | CC(=O)N1c2ccc(-c3cnn(CC(F)F)c3)cc2N(C(=O)C2CC2)C[C@@H]1C [Example I-651] |
| 100 to 1000 nM | 50 to 500 nM | > 500 nM | CC(=O)N1c2ccc(-c3cnn(Cc4ccnn4C)c3)cc2N(C(=O)C2CC2)C[C@@H]1C [Example I-652] |
| 100 to 1000 nM | 50 to 500 nM | 100 to 500 nM | CC(=O)N1c2ccc(-c3cnn(C(C)C)c3)cc2N(C(=O)OC(C)C)C[C@@H]1C [Example I-653] |
| 100 to 1000 nM | 50 to 500 nM | 100 to 500 nM | CC(=O)N1c2ccc(-c3cnn(CC(=O)N4CCOCC4)c3)cc2N(C(=O)OC(C)C)C[C@@H]1C [Example I-654] |
| 100 to 1000 nM | 50 to 500 nM | 100 to 500 nM | CC(=O)N1c2ccc(-c3cnn(CC4CCC4)c3)cc2N(C(=O)C2CC2)C[C@@H]1C [Example I-656] |
| 100 to 1000 nM | 50 to 500 nM | 100 to 500 nM | CC(=O)N1c2ccc(-c3cnn(CC4CCOCC4)c3)cc2N(C(=O)C2CC2)C[C@@H]1C [Example I-657] |
| 100 to 1000 nM | 50 to 500 nM | > 500 nM | CC(=O)N1c2ccc(-c3cnn(CCN4CCCS4(=O)=O)c3)cc2N(C(=O)C2CC2)C[C@@H]1C [Example I-659] |
| 100 to 1000 nM | 50 to 500 nM | > 500 nM | CC(=O)N1c2ccc(-c3cnn(CC4(CO)COC4)c3)cc2N(C(=O)C2CC2)C[C@@H]1C [Example I-662] |
| 100 to 1000 nM | 50 to 500 nM | 100 to 500 nM | CC(=O)N1c2ccc(-c3cnn(Cc4ccno4)c3)cc2N(C(=O)C2CC2)C[C@@H]1C [Example I-663] |
| 100 to 1000 nM | 50 to 500 nM | 100 to 500 nM | CCNC(=O)Cn1cc(-c2ccc3c(c2)N(C(=O)OC(C)C)C[C@H](C)N3C(C)=O)cn1 [Example I-664] |
| 100 to 1000 nM | 50 to 500 nM | 100 to 500 nM | CC(=O)N1c2ccc(-c3cnn(Cc4cc(C)on4)c3)cc2N(C(=O)OC(C)C)C[C@@H]1C [Example I-665] |
| 100 to 1000 nM | 50 to 500 nM | 100 to 500 nM | CC(=O)N1c2ccc(-c3cnn(CCF)c3)cc2N(C(=O)OC(C)C)C[C@@H]1C [Example I-666] |
| 100 to 1000 nM | 50 to 500 nM | 100 to 500 nM | CC(=O)N1c2ccc(-c3cnn(CC(=O)N4CCC4)c3)cc2N(C(=O)OC(C)C)C[C@@H]1C [Example I-667] |
| 100 to 1000 nM | 50 to 500 nM | 100 to 500 nM | CC(=O)N1c2ccc(-c3cnn(Cc4noc(C)n4)c3)cc2N(C(=O)C2CC2)C[C@@H]1C [Example I-668] |
